In US20090318551A1, “USES OF ANALOGS OF 3-O-ACETYL-11-KETO-BETA-BOSWELLIC ACID” (priority 2004, published 2009):
Where a name gives a salt, the structure may show the parent alone.

Key:
Artemia salina = assay: Brine shrimp lethality (BSL) assay; format: in vivo; conditions: nauplii, viability/mortality after 24 hr; for LC50: Artemia salina, read-out: LD50 in mcM
From the text: Brine shrimp lethality (BSL) assay is a simple bench top bioassay developed by McLaughlin, et. al. (Studies in Natural Product Chemistry, 9, page 383, 1991 and Am. Chem. Soc. Symp. Series, 534, page 114, 1992) and the results obtained by this assay have been reported to be corroborative with the cytotoxicities determined in 9KB and 9PS cells. The procedure involves hatching Artemia salina cysts in a cone shaped vessel and collecting active nauplii after 48 hr and treating with known concentrations of test substances and vehicle (control) in tubes each tube containing 10 nauplii and checking viability/mortality after 24 hr. Percentage lethality was calculated by comparing mean values of control and test sets of three tubes each. LC50 values were obtained from the graph plotted micro molar concentration against percent lethality.

5-Lipoxygenase = assay: 5-Lox assay (colorimetric, ferric xylenol orange); format: biochemical; conditions: linoleic acid substrate, pH 6.3; for % inhibition @ 250 μM: 250 μM test substance; for % inhibition @ 100 μM: 100 μM test substance
Protocol: The AKBA analogs were screened for their 5-Lipoxygenase inhibitory potential using colorimetric method of Craig A. Gay et al (Anal Biochem., 304, 42 46, 2002). The assay mixture contained 50 mM phosphate buffer pH 6.3, 5-Lipoxygenase, various concentrations of test substances and linoleic acid in a total volume of 0.5 mL after 5 min incubation of above reaction mixture 0.5 ml ferric xylenol orange reagent was added and OD was measured after two minutes at 585 nm using spectrophotometer (varian). Controls were run along with test in a similar manner except using vehicle instead of test substance solution. Percent inhibition was calculated by comparing absorbance of test with that of control

5-LO = biological target: T1, 5-LO (Homo sapiens, UniProt P09917); conditions: compared with the six boswellic acids; cited from earlier work
T1 sequence (P09917 1-674): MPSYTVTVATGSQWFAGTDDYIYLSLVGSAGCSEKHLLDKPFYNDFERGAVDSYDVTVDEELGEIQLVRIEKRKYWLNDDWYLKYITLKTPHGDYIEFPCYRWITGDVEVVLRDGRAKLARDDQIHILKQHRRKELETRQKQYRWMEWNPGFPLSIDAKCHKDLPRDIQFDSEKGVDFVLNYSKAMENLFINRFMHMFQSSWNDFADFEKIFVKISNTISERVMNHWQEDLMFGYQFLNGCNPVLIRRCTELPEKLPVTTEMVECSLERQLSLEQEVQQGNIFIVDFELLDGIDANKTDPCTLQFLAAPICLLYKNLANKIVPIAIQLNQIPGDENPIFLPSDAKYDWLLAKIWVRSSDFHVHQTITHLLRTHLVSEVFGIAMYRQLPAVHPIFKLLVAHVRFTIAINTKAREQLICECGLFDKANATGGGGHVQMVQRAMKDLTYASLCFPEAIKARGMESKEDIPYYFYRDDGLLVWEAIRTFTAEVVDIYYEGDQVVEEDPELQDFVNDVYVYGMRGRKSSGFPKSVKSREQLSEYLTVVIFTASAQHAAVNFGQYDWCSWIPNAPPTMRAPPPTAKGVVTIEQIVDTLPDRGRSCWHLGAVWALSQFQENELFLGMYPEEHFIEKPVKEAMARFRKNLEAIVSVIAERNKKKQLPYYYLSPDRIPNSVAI

| Compound | LD50 in mcM (Artemia salina) | % inhibition @ 250 μM (5-Lipoxygenase) | LC50 (Artemia salina) | inhibitory activity against 5-LO (in words) (5-LO) | % inhibition @ 100 μM (5-Lipoxygenase) |
| --- | --- | --- | --- | --- | --- |
| CC1CCC2(C)CCC3(C)C(=CC(=O)C4C5(C)CCC(OC(=O)C=Cc6ccc(O)cc6)C(C)(C(=O)O)C5CCC43C)C2C1C (stereo not drawn) [Compound 6, 3-O-[4′-Hydroxycinnamoyl]-11-keto-β-boswellic acid] | 6.0 mcM | 11.3% |  |  |  |
| COC(=O)[C@@]1(C)/C(=N\O)CC[C@@]2(C)C1CC[C@]1(C)C2C(=O)C=C2C3[C@@H](C)[C@H](C)CC[C@]3(C)CC[C@]21C (some centres unmarked) [Compound 16, Methyl 3-oximino-11-ketours-12-en-24-oate] |  | 41.6% | > 100 µM |  |  |
| CC(=O)OC1CC[C@@]2(C)C(CC[C@]3(C)C2C(=O)C=C2C4[C@@H](C)[C@H](C)CC[C@]4(C)CC[C@]23C)[C@@]1(C)C(=O)NN (stereo partly drawn) [Compound 20, N-(3-O-Acetyl-11-keto-β-boswelloyl)-hydrazide] |  | 54.3% | 2.3 µM |  |  |
| COc1ccc(C=CC(=O)OC2CCC3(C)C(CCC4(C)C3C(=O)C=C3C5C(C)C(C)CCC5(C)CCC34C)C2(C)C(=O)O)cc1OC (stereo not drawn) [Compound 7, 3-O -(3′,4′-dimethoxycinnamoyl)-11-keto-β-boswellic acid] | 6.2 mcM | 17.8% |  |  |  |
| COC(=O)[C@]1(C)C2CC[C@]3(C)C(C(=O)C=C4C5[C@@H](C)[C@H](C)CC[C@]5(C)CC[C@]43C)[C@@]2(C)CC[C@@H]1Br (stereo partly drawn) [Compound 13, Methyl 3β-bromo-11-ketours-12-en-24-oate] |  | 17.6% | > 100 µM |  |  |
| CC(=O)OC1CC[C@@]2(C)C(CC[C@]3(C)C2C(=O)C=C2C4[C@@H](C)[C@H](C)CC[C@]4(C)CC[C@]23C)[C@@]1(C)C(=O)NCCN (stereo partly drawn) [Compound 21, N-(3-O-Acetyl-11-keto-β-boswelloyl)-ethylenediamine] |  | 76.6% | 71 µM |  |  |
| CC1CCC2(C)CCC3(C)C(=CC(=O)C4C5(C)CCC(OC(=O)CCC(=O)O)C(C)(C(=O)O)C5CCC43C)C2C1C (stereo not drawn) [Compound 4, 3-O -Succinyl-11-keto-β-boswellic acid] | 69.0 mcM | 41.1% |  |  |  |
| 3-O-Acetyl-11-keto-β-boswellic acid [Compound B2, reference compound] | 5.5 mcM | 31% |  | most pronounced inhibitory activity against 5-LO | 18.7% |
| CC(=O)OC1CC[C@@]2(C)C(CC[C@]3(C)C2C(=O)C=C2C4[C@@H](C)[C@H](C)CC[C@]4(C)CC[C@]23C)[C@@H]1C (some centres unmarked) [Compound 17, 3-Acetoxy-11-keto-24-norurs-12-ene] |  | 0% | > 100 µM |  |  |
| COc1cc(C=CC(=O)OC2CCC3(C)C(CCC4(C)C3C(=O)C=C3C5C(C)C(C)CCC5(C)CCC34C)C2(C)C(=O)O)cc(O)c1O (stereo not drawn) [Compound 8, 3-O-(3′,4′-Dihydroxy-5′-methoxycinnamoyl)-11-keto-β-boswellic acid] | 12.0 mcM | 8.1% |  |  |  |
| COC(=O)[C@@]1(C)C(C#N)CC[C@@]2(C)C1CC[C@]1(C)C2C(=O)C=C2C3[C@@H](C)[C@H](C)CC[C@]3(C)CC[C@]21C (stereo partly drawn) [Compound 14, Methyl 3α-cyano-11-ketours-12-en-24-oate] |  | 3.71% | > 100 µM |  |  |
| CC(=O)OC1CC[C@@]2(C)C(CC[C@]3(C)C2C(=O)C=C2C4[C@@H](C)[C@H](C)CC[C@]4(C)CC[C@]23C)[C@@]1(C)N (some centres unmarked) [Compound 25, 3-Acetoxy-4-amino-11-keto-24-norurs-12-ene] |  | 60.5% | 6 µM |  |  |
| COC(=O)[C@]1(C)C2CC[C@]3(C)C(C(=O)C=C4C5[C@@H](C)[C@H](C)CC[C@]5(C)CC[C@]43C)[C@@]2(C)CC[C@H]1S (stereo partly drawn) [Compound 15, Methyl 3α-thiohydroxy-11-ketours-12-en-24-oate] |  | 53.1% | 5.2 µM |  |  |
| CC(=O)OC1CC[C@@]2(C)C(CC[C@]3(C)C2C(=O)C=C2C4[C@@H](C)[C@H](C)CC[C@]4(C)CC[C@]23C)[C@@]1(C)C(=O)OCCN(C)C (stereo partly drawn) [Compound 18, (2′-N,N-Dimethylaminoethyl) 3-O-acetyl-11-keto-β-boswellate] |  |  | > 100 µM |  | 25.4% |
| COc1cc(C(=O)O[C@@H]2CC[C@@]3(C)C(CC[C@]4(C)C3C(=O)C=C3C5[C@@H](C)[C@H](C)CC[C@]5(C)CC[C@]34C)[C@@]2(C)C(=O)O)cc(O)c1O (stereo partly drawn) [Compound 3, 3-O-(5′-O-methylgalloyl)-11-keto-β-boswellic acid] |  |  | 33 µM |  | 27.4% |
| COC(=O)C1(C)C(OC(=O)CNC(=O)OC(C)(C)C)CCC2(C)C1CCC1(C)C2C(=O)C=C2C3C(C)C(C)CCC3(C)CCC21C (stereo not drawn) [Compound 9, Methyl 3-O-(N-Boc-glycyl)-11-keto-β-boswellate] | >100 mcM | 16.7% |  |  |  |
| CC(=O)OC1CC[C@@]2(C)C(CC[C@]3(C)C2C(=O)C=C2C4[C@@H](C)[C@H](C)CC[C@]4(C)CC[C@]23C)[C@@]1(C)C#N (some centres unmarked) [Compound 26, 3-Acetoxy-4-cyano-11-keto-24-norurs-12-ene] |  | 9.8% | > 100 µM |  |  |
| C[C@@H]1CC[C@]2(C)CC[C@]3(C)C(=CC(=O)C4[C@@]5(C)CCC(OC(=O)CCl)[C@](C)(C(=O)O)C5CC[C@]43C)C2[C@H]1C (stereo partly drawn) [Compound 2, 3-O-(Chloroacetyl)-11-keto-β-boswellic acid] |  | 3.12% | 98 µM |  |  |
| CC(=O)OC1CC[C@@]2(C)C(CC[C@]3(C)C2C(=O)C=C2C4[C@@H](C)[C@H](C)CC[C@]4(C)CC[C@]23C)[C@@]1(C)C(=O)NCCO (stereo partly drawn) [Compound 22, N-(3-O-Acetyl-11-keto-β-boswelloyl)-2-aminoethanol] |  | 10.4% | > 100 µM |  |  |
| CC1CCC2(C)CCC3(C)C(=CC(=O)C4C5(C)CCC(OC=O)C(C)(C(=O)O)C5CCC43C)C2C1C (stereo not drawn) [Compound 1, 3-O-Formyl-11-keto-β-boswellic acid] | 55.0 mcM | 5.5% |  |  |  |
| COC(=O)[C@]1(C)C2CC[C@]3(C)C(C(=O)C=C4C5[C@@H](C)[C@H](C)CC[C@]5(C)CC[C@]43C)[C@@]2(C)CC[C@@H]1O (stereo partly drawn) [Compound 12, Methyl 3β-hydroxy-11-ketours-12-en-24-oate] |  | 0.37% | > 100 µM |  |  |
| C[C@@H]1CC[C@]2(C)CC[C@]3(C)C(=CC(=O)C4[C@@]5(C)CC[C@@H](OC(=O)CN)[C@](C)(C(=O)O)C5CC[C@]43C)C2[C@H]1C (stereo partly drawn) [Compound 10, 3-O-Glycyl-11-keto-β-boswellic acid hydrochloride] | 12.0 mcM |  |  |  | 23.9% |
| CC(=O)OC1CC[C@@]2(C)C(CC[C@]3(C)C2C(=O)C=C2C4[C@@H](C)[C@H](C)CC[C@]4(C)CC[C@]23C)[C@@]1(C)N=C=O (some centres unmarked) [Compound 24, 3-Acetoxy-11-keto-24-norurs-12-en-4-isocyanate] |  | 0% | > 100 µM |  |  |
| C[C@H](N)C(=O)O[C@@H]1CC[C@@]2(C)C(CC[C@]3(C)C2C(=O)C=C2C4[C@@H](C)[C@H](C)CC[C@]4(C)CC[C@]23C)[C@@]1(C)C(=O)O (stereo partly drawn) [Compound 11, 3-O-Alanyl-11-keto-β-boswellic acid hydrochloride] | 29.0 mcM |  |  |  | 33.6% |
| C[C@@H]1CC[C@]2(C)CC[C@]3(C)C(=CC(O)C4[C@@]5(C)CC[C@@H](O)[C@](C)(C(=O)O)C5CC[C@]43C)C2[C@H]1C (stereo partly drawn) [Compound 27, 11-Hydroxy-β-boswellic acid] |  | 12.2% | 28.3 µM |  |  |
| CC(=O)OC1CC[C@@]2(C)C(CC[C@]3(C)C2C(=O)C=C2C4[C@@H](C)[C@H](C)CC[C@]4(C)CC[C@]23C)[C@@]1(C)C(N)=O (stereo partly drawn) [Compound 19, 3-O-Acetyl-11-keto-β-boswellic acid amide] |  | 35.8% | 4.6 µM |  |  |
| CC(=O)OC1CCC2(C)C(CCC3(C)C2C(=O)C=C2C4C(C)C(C)CCC4(C)CCC23C)C1(C)C(=O)N1CCNCC1 (stereo not drawn) [Compound 23, N-(3-O-Acetyl-11-keto-β-boswelloyl)-piperzine] | 0.88 mcM |  |  |  | 34.9% |
